Consider one compound from ChEMBL document CHEMBL1201862, “PubChem BioAssay data set” (2004).

Activity calls are given as the source filed them. Cut-off read from the data, not from the text of the source: actives have a measured IC50 and inactives only a lower limit.

This assay deals with T1, Sentrin-specific protease 7 (Homo sapiens, UniProt Q9BQF6).
T1 sequence (Q9BQF6 whole entry): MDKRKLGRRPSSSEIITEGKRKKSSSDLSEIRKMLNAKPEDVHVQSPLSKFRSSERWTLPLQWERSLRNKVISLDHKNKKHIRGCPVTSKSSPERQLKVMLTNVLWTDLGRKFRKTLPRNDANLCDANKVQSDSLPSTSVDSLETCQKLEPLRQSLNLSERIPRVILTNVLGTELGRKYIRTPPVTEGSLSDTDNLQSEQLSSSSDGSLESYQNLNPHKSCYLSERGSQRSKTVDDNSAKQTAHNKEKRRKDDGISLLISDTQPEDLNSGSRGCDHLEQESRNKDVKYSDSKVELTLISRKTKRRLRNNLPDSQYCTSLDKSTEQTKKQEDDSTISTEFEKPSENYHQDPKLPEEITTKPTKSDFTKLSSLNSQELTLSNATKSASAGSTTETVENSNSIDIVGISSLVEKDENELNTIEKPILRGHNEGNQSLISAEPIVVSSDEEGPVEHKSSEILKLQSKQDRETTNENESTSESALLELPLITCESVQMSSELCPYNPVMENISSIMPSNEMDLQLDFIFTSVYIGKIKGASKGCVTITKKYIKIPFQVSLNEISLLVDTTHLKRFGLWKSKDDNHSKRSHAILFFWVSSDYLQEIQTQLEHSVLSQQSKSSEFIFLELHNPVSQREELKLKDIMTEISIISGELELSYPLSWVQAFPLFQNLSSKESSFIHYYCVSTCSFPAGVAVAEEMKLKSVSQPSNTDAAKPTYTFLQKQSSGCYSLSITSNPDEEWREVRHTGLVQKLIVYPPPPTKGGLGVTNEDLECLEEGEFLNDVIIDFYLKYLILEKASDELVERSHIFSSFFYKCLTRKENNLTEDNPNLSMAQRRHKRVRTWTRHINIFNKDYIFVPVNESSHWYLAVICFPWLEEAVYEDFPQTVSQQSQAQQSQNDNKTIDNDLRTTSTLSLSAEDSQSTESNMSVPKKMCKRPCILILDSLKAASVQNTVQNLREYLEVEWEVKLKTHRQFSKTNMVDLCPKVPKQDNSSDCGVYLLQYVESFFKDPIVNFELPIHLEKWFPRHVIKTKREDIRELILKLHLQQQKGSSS
In kind it is functional.
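Note: Luminescence-based dose-response confirmation of ultra-high-throughput screening hits, measuring inhibition of SENP7.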

On to `N#Cc1c(NC(=O)CSc2nc[nH]n2)sc2c1CCCCC2`, for which the IC50 is 5.65 µM (active).
